The assay deals with T1, human α1β2γ2L GABAA receptor (Homo sapiens, UniProt P14867+P18507+P47870).
T1 construct: gene GABRA1; α1β2γ2L receptor expressed in Xenopus laevis oocytes; with GABRB2 (β2) and GABRG2 (γ2L) subunits
In words: two-electrode voltage clamp in Xenopus oocytes, inhibition of GABA-evoked current ([…] GABA). Type of assay: cell-based. (In general: Two-electrode voltage clamp is typically applied to oocytes expressing channels or transporters.)

T1 sequence (P14867 28-456): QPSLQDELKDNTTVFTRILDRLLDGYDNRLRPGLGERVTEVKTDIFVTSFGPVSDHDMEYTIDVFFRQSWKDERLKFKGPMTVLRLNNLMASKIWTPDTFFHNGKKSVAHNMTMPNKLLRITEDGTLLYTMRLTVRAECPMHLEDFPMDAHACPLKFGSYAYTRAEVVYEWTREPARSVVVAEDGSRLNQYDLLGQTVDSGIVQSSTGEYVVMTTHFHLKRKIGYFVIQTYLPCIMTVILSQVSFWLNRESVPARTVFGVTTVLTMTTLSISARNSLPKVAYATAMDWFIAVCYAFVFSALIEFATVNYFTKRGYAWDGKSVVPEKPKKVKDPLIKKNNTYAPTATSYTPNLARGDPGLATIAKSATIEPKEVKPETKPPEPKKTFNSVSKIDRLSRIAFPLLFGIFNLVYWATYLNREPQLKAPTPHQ
T1 sequence (P47870 26-512): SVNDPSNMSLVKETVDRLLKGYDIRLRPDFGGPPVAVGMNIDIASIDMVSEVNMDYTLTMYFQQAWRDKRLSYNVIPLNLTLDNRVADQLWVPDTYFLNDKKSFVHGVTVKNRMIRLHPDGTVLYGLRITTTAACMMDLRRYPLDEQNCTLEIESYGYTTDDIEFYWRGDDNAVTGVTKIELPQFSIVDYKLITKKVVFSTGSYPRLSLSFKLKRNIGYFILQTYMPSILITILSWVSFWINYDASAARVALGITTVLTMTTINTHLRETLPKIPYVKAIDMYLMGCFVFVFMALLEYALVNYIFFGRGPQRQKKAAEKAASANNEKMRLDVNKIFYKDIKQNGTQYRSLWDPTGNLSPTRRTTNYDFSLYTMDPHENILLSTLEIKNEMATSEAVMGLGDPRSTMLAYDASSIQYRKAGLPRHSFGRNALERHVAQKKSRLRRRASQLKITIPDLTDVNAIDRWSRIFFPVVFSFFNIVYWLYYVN
T1 sequence (P18507 40-475): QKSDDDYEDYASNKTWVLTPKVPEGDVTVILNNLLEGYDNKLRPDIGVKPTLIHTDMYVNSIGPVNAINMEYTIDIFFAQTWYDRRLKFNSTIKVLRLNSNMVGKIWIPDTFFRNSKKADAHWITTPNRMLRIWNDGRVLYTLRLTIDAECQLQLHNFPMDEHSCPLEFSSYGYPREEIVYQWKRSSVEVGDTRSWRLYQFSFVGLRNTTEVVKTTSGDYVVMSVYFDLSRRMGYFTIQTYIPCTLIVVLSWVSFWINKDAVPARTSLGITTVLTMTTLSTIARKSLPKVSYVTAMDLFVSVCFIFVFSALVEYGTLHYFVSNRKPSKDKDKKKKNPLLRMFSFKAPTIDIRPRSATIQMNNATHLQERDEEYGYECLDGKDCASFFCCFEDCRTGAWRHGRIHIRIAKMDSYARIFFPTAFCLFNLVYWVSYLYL

What is called IC50 is the point on the concentration scale where inhibition reaches its midpoint. Higher therefore signals weaker potency. The molecule `O=C(O)C(F)(F)C(F)(F)C(F)(F)C(F)(F)C(F)(F)C(F)(F)C(F)(F)F` [PFOA] displayed a 50% inhibitory concentration (IC50) of 6.7 µM. That is a single-digit micromolar value. To `O=S(=O)(O)C(F)(F)C(F)(F)C(F)(F)C(F)(F)C(F)(F)C(F)(F)C(F)(F)C(F)(F)F` [PFOS] belongs 0.18 µM.

The values are drawn from paper PMC7093421, “Perfluorooctane sulfonate (PFOS) and perfluorooctanoate (PFOA) acutely affect human α1β2γ2L GABAA receptor and spontaneous neuronal network function in vitro” (Scientific Reports, 2020).
